From the supplement of paper PMC10307832

Columns and labels:
Test in all cases: relative viability (nuclei count vs DMSO), 5 days (fraction); higher = more cells survive
Motesanib + Luminespib = compound: CC1(C)CNc2cc(NC(=O)c3cccnc3NCc3ccncc3)ccc21 [Motesanib] + CCNC(=O)c1noc(-c2cc(C(C)C)c(O)cc2O)c1-c1ccc(CN2CCOCC2)cc1 [Luminespib] (partner 0.01 µM)
Outline: (§1)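 After 5 days of treatment, lung cancer cells in 1536-well plates were fixed and stained in a single step (final 0.05% Triton X-100, 1% formaldehyde, 1 ug/ml Hoechst) and their nuclei counted on 4× images. Treatment had been applied by pin tool the day after seeding as one drug alone or as a fixed anchor-drug dose with five library-drug doses (not always all listed) in √10 steps. Relative viability is the nuclei count of treated wells divided by that of vehicle wells, and values are medians of duplicate plates.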

Motesanib + Pictilisib = compound: CC1(C)CNc2cc(NC(=O)c3cccnc3NCc3ccncc3)ccc21 [Motesanib] + CS(=O)(=O)N1CCN(Cc2cc3nc(-c4cccc5[nH]ncc45)nc(N4CCOCC4)c3s2)CC1 [Pictilisib] (partner 1 µM)
Outline: as §1

[1] = compound: C[C@@]1(C(=O)Nc2ccc(F)nc2)CCCN1c1nc(Nc2cc(C3CC3)n[nH]2)c2cccn2n1 + COc1cccc2cc(-c3nc([C@H]4CC[C@H](C(=O)O)CC4)n4ncnc(N)c34)[nH]c12 [OSI-027] (partner 0.5 µM)
Outline: as §1

[2] = compound: C[C@@]1(C(=O)Nc2ccc(F)nc2)CCCN1c1nc(Nc2cc(C3CC3)n[nH]2)c2cccn2n1 + NC(=O)Nc1cc(-c2cccc(F)c2)sc1C(=O)N[C@H]1CCCNC1 [AZD7762] (partner 0.2 µM)
Outline: as §1

Cell Line	relative viability (Motesanib + Luminespib; first compound 0.01 µM)	relative viability (Motesanib + Luminespib; first compound 0.03162 µM)	relative viability (Motesanib + Luminespib; first compound 0.1 µM)	relative viability (Motesanib + Luminespib; first compound 0.3162 µM)	relative viability (Motesanib + Luminespib; first compound 1 µM)	relative viability (Motesanib + Pictilisib; first compound 0.01 µM)	relative viability (Motesanib + Pictilisib; first compound 0.03162 µM)	relative viability (Motesanib + Pictilisib; first compound 0.1 µM)	relative viability (Motesanib + Pictilisib; first compound 0.3162 µM)	relative viability (Motesanib + Pictilisib; first compound 1 µM)	relative viability ([1]; first compound 0.04 µM)	relative viability ([1]; first compound 0.1265 µM)	relative viability ([1]; first compound 0.4 µM)	relative viability ([1]; first compound 1.265 µM)	relative viability ([2]; first compound 0.04 µM)	relative viability ([2]; first compound 0.1265 µM)	relative viability ([2]; first compound 0.4 µM)	relative viability ([2]; first compound 1.265 µM)
201T	1.02	1.02	1.11	1.01	1.05	0.671	0.688	0.68	0.679	0.71	0.519	0.356	0.35	0.306	0.623	0.575	0.473	0.597
A549						0.515	0.478	0.504	0.574	0.57								
A-427	0.872	1.05	0.769	1.24	1.05	0.43	0.684	0.495	0.681	0.789	0.442	0.275	0.366	0.261	0.64	0.642	0.647	0.427
ABC-1	0.637	0.867	0.556	0.716	0.866	0.81	0.962	0.715	0.707	0.76	0.382	0.285	0.225	0.298	0.833	0.595	0.643	0.593
BEN	0.331	0.46	0.393	0.498	0.387	0.517	0.618	0.624	0.579	0.715	0.263	0.18	0.236	0.271	0.809	0.645	0.67	0.676
CAL-12T	0.371	0.375	0.195	0.567	0.175			0.358	0.403	0.434	0.486	0.382	0.292	0.275	0.659	0.765	0.78	0.677
COR-L23	0.605	0.694	0.728	0.665	0.738	0.701	0.864	0.732	0.836	0.854	0.656	0.53	0.518	0.461				
COR-L 105	0.737	0.894	0.896	0.73	0.843	0.489	0.439	0.395	0.49	0.385	0.627	0.377	0.31	0.408				
Calu-6						0.878	0.727	0.944	0.867	0.84								
ChaGo-K-1	0.525	0.656	0.589	0.552	0.588		0.535	0.532	0.638	0.757	0.402	0.252	0.317	0.291	0.845	0.815	0.862	0.841
EBC-1						0.503	0.366	0.302	0.385	0.335								
EKVX	0.847	0.836	0.833	0.877	0.826	0.483	0.445	0.462	0.472	0.506	0.574	0.399	0.391	0.373	0.671	0.505	0.489	0.578
EMC-BAC-2	1.2	1.16	1.14	1.16	1.05	0.582	0.564	0.537	0.542	0.6	0.299	0.274	0.241	0.251	1.14	0.644	0.679	0.54
EPLC-272H	0.302	0.268		0.233	0.266	0.296	0.176	0.267	0.317	0.309	0.301		0.24	0.189	0.215	0.187	0.212	0.164
H3255	0.872	0.954	0.942	1.06	0.902	0.473	0.487	0.491	0.488	0.427	0.523	0.555	0.397	0.447	0.96	0.931	0.811	0.855
HARA	0.894	0.628	0.786	0.871	0.612	0.372	0.366	0.405	0.389	0.461	0.439	0.208	0.171	0.25	0.42	0.227	0.73	0.198
HCC-15	0.33	0.38	0.314	0.278	0.545	0.786	0.729	0.653	0.848	0.747	0.417	0.189	0.305	0.365	1.07	1.18	1.25	1.13
HCC-44	1.07	0.964	0.884	1.24	1.2	0.672	0.611	0.891	0.673	0.474	0.447	0.213	0.298	0.191	1.02	0.954	0.989	0.979
HCC-78						0.182	0.198	0.174	0.207	0.182	0.377	0.308	0.298	0.323	0.593	0.419	0.418	0.4
HCC-366						0.145	0.149	0.139	0.139	0.137	0.861	0.585	0.462	0.437	0.356	0.31	0.293	0.152
HCC-827	0.777	0.809	0.775	0.75	0.576	1.12	1.13	0.866	1.01	1.04	0.393	0.782	0.707	0.724	0.273	0.19	0.241	0.191
HOP-62	0.942	0.834	0.954	0.853	0.935	0.651	0.843	0.507	1.08	1.01	0.758	0.574	0.641	0.657	0.812	0.541	0.427	0.547
IA-LM						0.38	0.346	0.351	0.318	0.519								

Cell Line	relative viability (Motesanib + Luminespib; first compound 0.01 µM)	relative viability (Motesanib + Luminespib; first compound 0.03162 µM)	relative viability (Motesanib + Luminespib; first compound 0.1 µM)	relative viability (Motesanib + Luminespib; first compound 0.3162 µM)	relative viability (Motesanib + Luminespib; first compound 1 µM)	relative viability (Motesanib + Pictilisib; first compound 0.01 µM)	relative viability (Motesanib + Pictilisib; first compound 0.03162 µM)	relative viability (Motesanib + Pictilisib; first compound 0.1 µM)	relative viability (Motesanib + Pictilisib; first compound 0.3162 µM)	relative viability (Motesanib + Pictilisib; first compound 1 µM)	relative viability ([1]; first compound 0.04 µM)	relative viability ([1]; first compound 0.1265 µM)	relative viability ([1]; first compound 0.4 µM)	relative viability ([1]; first compound 1.265 µM)	relative viability ([2]; first compound 0.04 µM)	relative viability ([2]; first compound 0.1265 µM)	relative viability ([2]; first compound 0.4 µM)	relative viability ([2]; first compound 1.265 µM)
LC-2-ad	1.03	1.01	0.959	1.07	1.19	0.449	0.593	0.479	0.568	0.421	0.601	0.458	0.405	0.392	0.657	0.586	0.543	0.391
LCLC-97TM1	0.635	0.809	0.707	0.813	0.793	0.224	0.204	0.15	0.235	0.18	0.284	0.111	0.122	0.112	0.284	0.234	0.134	0.128
LCLC-103H	0.92	0.92	0.996	1.04	0.98		0.613	0.542	0.639	0.709	0.434	0.295	0.268	0.274	0.7	0.748	0.6	0.691
LK-2	0.213	0.191		0.189	0.192	0.576	0.513	0.555	0.621	0.537		0.163	0.153	0.178	0.179	0.203		0.179
LOU-NH91	0.38	0.364	0.332	0.379	0.393	0.466	0.523	0.563	0.547	0.568	0.65	0.665	0.59	0.563	0.683	0.723	0.626	0.642
NCI-H520	0.22	0.276	0.27	0.196	0.242	0.269	0.267	0.345	0.284	0.207	0.328	0.297	0.257	0.22				
NCI-H522		1.14	1.22	1.18	1.1						0.589	0.36	0.735	0.704	0.678	0.539	0.791	0.821
NCI-H661	0.912	0.968	0.948	0.952	0.901	0.327	0.35	0.348	0.379	0.43	0.592	0.564	0.249	0.529				
NCI-H1299						0.59	0.828	0.825	0.845	0.845								
NCI-H1563	0.523	0.504	0.54	0.542	0.487	0.65	0.645	0.68	0.64	0.678	0.721	0.599	0.609	0.631				
NCI-H1623	0.605	0.506	0.49	0.306	0.515						0.423	0.32	0.307	0.302				
NCI-H1648											0.25			0.229	0.671	0.608	0.586	0.676
NCI-H1650	0.181	0.179	0.185	0.19	0.2	0.592		0.516	0.495	0.517	0.546	0.49	0.442	0.374				
NCI-H1703						0.21	0.219	0.195	0.215	0.214					0.145	0.111	0.13	0.12
NCI-H2009	1.01	1.04	0.945	1.07	1.01	0.734	0.732	0.818	0.827	0.873	0.634	0.371	0.403	0.42				
NCI-H2023	0.778	0.687	0.855	0.811	0.783	0.234	0.226	0.276	0.239	0.238	0.3	0.088	0.105	0.116				
NCI-H2228	0.19	0.148	0.228	0.142	0.163	0.442	0.356	0.387	0.365	0.535	0.495	0.187	0.227	0.229				
NCI-H2342	0.647	0.622	0.795	0.642	0.841						0.636	0.561	0.448	0.479	0.475	0.375	0.404	0.323
SK-LU-1	0.219	0.188	0.195	0.204	0.158	0.494	0.481	0.553	0.628	0.663	0.252	0.176	0.198	0.219				
SK-MES-1	0.84	0.842	0.986	0.785	0.721	0.392	0.405	0.403	0.381	0.339	0.615	0.317	0.357	0.286				
SW 900	0.172	0.181	0.182	0.168	0.167						0.549	0.518	0.464	0.551	0.541	0.688	0.5	0.561
SW 1573	0.152	0.266	0.207	0.323	0.335	0.479	0.437	0.617	0.54	0.563	0.548	0.24	0.283	0.302				
